The values below come from patent US10329309B2, “3-(3H-imidazo[4,5-B]pyridin-2-yl)-1H-pyrazolo[4,3-B]pyridines and therapeutic uses thereof” (Samumed, LLC, priority 2015, dated 2019).

This assay relates to Wnt activity (Sp5-Luc reporter, SW480 colon carcinoma cells). Put plainly: Screening assay for Wnt activity: Sp5-Luc reporter gene assay in SW480 cells. In kind it is cell-based. The conditions noted are these: Homo sapiens; for inhibition at 10 µM: 10 μM compound, read-out: percent inhibition at 10 μM (given for EC50 of >10 μM); for EC50: overnight incubation, 10-point dose-response from 10 μM. The method, boiled down:
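SW480 cells stably carrying Sp5-Luc reporter (eight TCF/LEF sites) plated at 4,000/well in 1% FBS medium with compound (10-point 1:3 series from 10 μM, 0.1% DMSO) overnight at 37 °C. BrightGlo luminescence normalized to DMSO; EC50 by four-parameter fit, else % inhibition at 10 μM.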
In general terms: A reporter such as luciferase makes a cellular process visible.

In general, inhibition refers to the drop in the measured response relative to a control, in per cent. One may read the EC50 as the concentration at which the effect is half-maximal.

`Cc1cn(-c2ccnc3[nH]c(-c4n[nH]c5ccc(-c6cncc(OCCN(C)C)c6)nc45)nc23)cn1` [Compound 627, N,N-Dimethyl-2-((5-(3-(7-(4-methyl-1H-imidazol-1-yl)-3H-imidazo[4,5-b]pyridin-2-yl)-1H-pyrazolo[4,3-b]pyridin-5-yl)pyridin-3-yl)oxy)ethan-1-amine]: the inhibition at 10 µM amounted to 22.4% and the EC50 is above 10 µM.
As for `CN1CCN(c2ccnc3[nH]c(-c4n[nH]c5ccc(-c6cncc(OC7CCCCC7)c6)nc45)nc23)CC1` [Compound 639, 5-(5-(Cyclohexyloxy)pyridin-3-yl)-3-(7-(4-methylpiperazin-1-yl)-3H-imidazo[4,5-b]pyridin-2-yl)-1H-pyrazolo[4,3-b]pyridine], the EC50 came out at 4.06 µM.
The same measure, in the same setting: the figure for `CN1CCN(c2ccnc3[nH]c(-c4n[nH]c5ccc(-c6cnccn6)nc45)nc23)CC1` [Compound 648, 3-(7-(4-Methylpiperazin-1-yl)-3H-imidazo[4,5-b]pyridin-2-yl)-5-(pyrazin-2-yl)-1H-pyrazolo[4,3-b]pyridine] is 4.34 µM.
For `c1cnc2[nH]c(-c3n[nH]c4ccc(-c5cn[nH]c5)nc34)nc2c1` [Compound 651, 3-(3H-Imidazo[4,5-b]pyridin-2-yl)-5-(1H-pyrazol-4-yl)-1H-pyrazolo[4,3-b]pyridine], the inhibition at 10 µM is 12% and the EC50 is above 10 µM.
Taken in the same sequence, the figures for `c1cnc2[nH]c(-c3n[nH]c4ccc(-c5cncc(OC6CCNCC6)c5)nc34)nc2c1` [Compound 656, 3-(3H-Imidazo[4,5-b]pyridin-2-yl)-5-(5-(piperidin-4-yloxy)pyridin-3-yl)-1H-pyrazolo[4,3-b]pyridine] were 22.1% and above 10 µM.
For the compound `Oc1cncc(-c2ccc3[nH]nc(-c4nc5cccnc5[nH]4)c3n2)c1` [Compound 661, 5-(3-(3H-Imidazo[4,5-b]pyridin-2-yl)-1H-pyrazolo[4,3-b]pyridin-5-yl) pyridin-3-ol], the inhibition at 10 µM was 7.2% and the EC50 was above 10 µM.
Regarding `O=C(CC1CCNCC1)Nc1cncc(-c2ccc3[nH]nc(-c4nc5c(-c6ccsc6)ccnc5[nH]4)c3n2)c1` [Compound 673, 2-(Piperidin-4-yl)-N-(5-(3-(7-(thiophen-3-yl)-3H-imidazo[4,5-b]pyridin-2-yl)-1H-pyrazolo[4,3-b]pyridin-5-yl)pyridin-3-yl)acetamide], the inhibition at 10 µM came out at 26.9% and the EC50 is above 10 µM.
In the case of `Cc1ncc(-c2ccc3[nH]nc(-c4nc5c(-c6ccoc6)ccnc5[nH]4)c3n2)n1C` [Compound 685, 5-(1,2-Dimethyl-1H-imidazol-5-yl)-3-(7-(furan-3-yl)-3H-imidazo[4,5-b]pyridin-2-yl)-1H-pyrazolo[4,3-b]pyridine], it took 2.82 µM to reach a half-maximal effect (EC50).
For the compound `c1cc(-c2ccoc2)c2nc(-c3n[nH]c4ccc(-c5cncc(OCCN6CCCC6)c5)nc34)[nH]c2n1` [Compound 690, 3-(7-(Furan-3-yl)-3H-imidazo[4,5-b]pyridin-2-yl)-5-(5-(2-(pyrrolidin-1-yl)ethoxy)pyridin-3-yl)-1H-pyrazolo[4,3-b]pyridine], the inhibition at 10 µM is 37.6% and the EC50 was above 10 µM.
Turning to `COc1cncc(-c2ccc3[nH]nc(-c4nc5c(-c6ccoc6)ccnc5[nH]4)c3n2)c1` [Compound 692, 3-(7-(Furan-3-yl)-3H-imidazo[4,5-b]pyridin-2-yl)-5-(5-methoxypyridin-3-yl)-1H-pyrazolo[4,3-b]pyridine], the inhibition at 10 µM is 15.3% and the 50% effective concentration (EC50) is above 10 µM.
On the same counts, the results for `Cn1cc(-c2ccc3[nH]nc(-c4nc5c(-c6cccs6)ccnc5[nH]4)c3n2)cn1` [Compound 700, 5-(1-Methyl-1H-pyrazol-4-yl)-3-(7-(thiophen-2-yl)-3H-imidazo[4,5-b]pyridin-2-yl)-1H-pyrazolo[4,3-b]pyridine] are 3.4% and above 10 µM.
Compound `CN(C)CCOc1cncc(-c2ccc3[nH]nc(-c4nc5c(-c6cccs6)ccnc5[nH]4)c3n2)c1` [Compound 707, N,N-Dimethyl-2-((5-(3-(7-(thiophen-2-yl)-3H-imidazo[4,5-b]pyridin-2-yl)-1H-pyrazolo[4,3-b]pyridin-5-yl)pyridin-3-yl)oxy)ethan-1-amine] showed a concentration giving a half-maximal response (EC50) of 3.57 µM.
Same read-out and setting: the figure for `Cc1ccc(-c2ccnc3[nH]c(-c4n[nH]c5ccc(-c6cncc(OC7CCCCC7)c6)nc45)nc23)s1` [Compound 735, 5-(5-(Cyclohexyloxy)pyridin-3-yl)-3-(7-(5-methylthiophen-2-yl)-3H-imidazo[4,5-b]pyridin-2-yl)-1H-pyrazolo[4,3-b]pyridine] is 0.984 µM.
With `Cn1cc(-c2ccc3[nH]nc(-c4nc5c(-c6cc(F)cc(CNS(C)(=O)=O)c6)ccnc5[nH]4)c3n2)cn1` [Compound 764, N-(3-Fluoro-5-(2-(5-(1-methyl-1H-pyrazol-4-yl)-1H-pyrazolo[4,3-b]pyridin-3-yl)-3H-imidazo[4,5-b]pyridin-7-yl)benzyl)methanesulfonamide], the inhibition at 10 µM was 20.9% and the EC50 was above 10 µM.
As to `CS(=O)(=O)NCc1cc(F)cc(-c2ccnc3[nH]c(-c4n[nH]c5ccc(-c6cncc(NC(=O)CC7CCNCC7)c6)nc45)nc23)c1` [Compound 769, N-(5-(3-(7-(3-Fluoro-5-(methylsulfonamidomethyl)phenyl)-3H-imidazo[4,5-b]pyridin-2-yl)-1H-pyrazolo[4,3-b]pyridin-5-yl)pyridin-3-yl)-2-(piperidin-4-yl)acetamide], the inhibition at 10 µM was 12.1% and the EC50 is above 10 µM.
The compound `CN(C)CCNc1cc(F)cc(-c2ccnc3[nH]c(-c4n[nH]c5ccc(-c6cncc(OCCN7CCCC7)c6)nc45)nc23)c1` [Compound 786, N^1-(3-Fluoro-5-(2-(5-(5-(2-(pyrrolidin-1-yl)ethoxy)pyridin-3-yl)-1H-pyrazolo[4,3-b]pyridin-3-yl)-3H-imidazo[4,5-b]pyridin-7-yl)phenyl)-N^2,N^2-dimethylethane-1,2-diamine] came in with an EC50 of 6.25 µM.
The same measure, in the same setting: the figure for `CN(C)CCNc1cc(F)cc(-c2ccnc3[nH]c(-c4n[nH]c5ccc(-c6cnccn6)nc45)nc23)c1` [Compound 792, N^1-(3-Fluoro-5-(2-(5-(pyrazin-2-yl)-1H-pyrazolo[4,3-b]pyridin-3-yl)-3H-imidazo[4,5-b]pyridin-7-yl)phenyl)-N^2,N^2-dimethylethane-1,2-diamine] is 3.93 µM.
Regarding `COc1cccc(-c2ccnc3[nH]c(-c4n[nH]c5ccc(-c6cncc(OC7CCNCC7)c6)nc45)nc23)c1` [Compound 1025, 3-(7-(3-Methoxyphenyl)-3H-imidazo[4,5-b]pyridin-2-yl)-5-(5-(piperidin-4-yloxy)pyridin-3-yl)-1H-pyrazolo[4,3-b]pyridine], the inhibition at 10 µM was determined as 39.2% and the EC50 was above 10 µM.
Taken in the same sequence, the figures for `COc1cccc(-c2ccnc3[nH]c(-c4n[nH]c5ccc(-c6cncc(O)c6)nc45)nc23)c1` [Compound 1030, 5-(3-(7-(3-Methoxyphenyl)-3H-imidazo[4,5-b]pyridin-2-yl)-1H-pyrazolo [4,3-b]pyridin-5-yl)pyridin-3-ol] were 33.5% and above 10 µM.
Regarding `c1cc(-c2ccc3c(c2)OCO3)c2nc(-c3n[nH]c4ccc(C5CCNCC5)nc34)[nH]c2n1` [Compound 1108, 3-(7-(Benzo[d][1,3]dioxol-5-yl)-3H-imidazo[4,5-b]pyridin-2-yl)-5-(piperidin-4-yl)-1H-pyrazolo[4,3-b]pyridine], the inhibition at 10 µM amounted to 9.3% and the EC50 was above 10 µM.
